The values below are quoted from earlier work in patent US11913924B2, “Ion generation using modified wetted porous materials” (Purdue Research Foundation, priority 2011, dated 2024).

The conditions of data set [1]: in vivo.
Setting [2] is: therapeutic windows listed in Table 6.

Where two headings read alike, the source gives them in different places.

With `O=P1(N(CCCl)CCCl)NCCCO1` (stereo not shown) [Cyclophosphamide, cyclophosphamide], the “Therapeutic range” value (plasma concentrations, Regenthal et al., J. Clin. Monitor Comp. 1999) was 10000 to 25000 ng/mL. Consider `CN(C)CCC=C1c2ccccc2CCc2ccccc21` [amitriptyline], for which the Therapeutic range under setting [2] is 50 to 200 ng/mL. As to `CN(C)CCCC1(c2ccc(F)cc2)OCc2cc(C#N)ccc21` (stereo not shown) [citalopram], under setting [2], the Therapeutic range is 10 to 200 ng/mL. In the case of `CN1C(=O)CC[C@H]1c1cccnc1` [cotinine], the half-life entry in data set [1] is reported as “about 16 hours”.

For `CCN(CC)CC(=O)Nc1c(C)cccc1C` [lidocaine], under setting [2], the Therapeutic range is 1,000-6,000 ng mL^−1. As to `CN1CCCC1c1cccnc1` (stereo not shown) [nicotine], in data set [1], the half-life entry was “about 2 hours”. Regarding `CCN(CC)CCNC(=O)c1c(C)[nH]c(/C=C2\C(=O)Nc3ccc(F)cc32)c1C` [sunitinib], the Therapeutic range under setting [2] was 20 to 200 ng/mL.
